Data on seven compounds can be found in patent publication US9012475B2, “Method for enhancing anti-tumor effect of a microtubule-targeting drug, and a method for treatment of tumor” (Taiho Pharmaceutical Co., Ltd., priority 2013, dated 2015).

“Also recorded” adds a separate entry of the source. Like-named read-outs stand apart in the source and are kept apart here.

For data set [1] the following is noted: then 24 hours later MK-5108 orally twice per day over 2 days; cited from earlier work.
For data set [2], the system named is human-derived uterus cancer cell strain HeLa-luc. To be noted: for number of CR cases: 5 rats. From the text: Cells (1×10^7) of human-derived uterus cancer cell strain HeLa-luc (manufactured by PerkinElmer Co., Ltd.) having a luciferase gene introduced therein were subcutaneously grafted to the right abdomens of nude rats. At the time the volume of a tumor developed from grafted cells reached about 200 mm^3, the rats were divided into groups each consisting of 5 rats according to stratified randomization such that each group had almost the same tumor volume. […] To Group 2 and 3, paclitaxel was administered and, on the next day, Compound 1 (30 mg/kg) was orally administered twice per day for one day or 4 days (sequential administration, see FIG. 1 (A), Sequential treatment). To the rats of Group 4 and 5, paclitaxel was administered and, on the same day, Compound 1 (30 mg/kg) was orally administered twice per day for 2 days or 4 days (concurrent administration, see FIG. 1 (B), Concurrent treatment). Compound 1 was suspended or dissolved in 0.5% (w/v) hydroxypropyl methyl cellulose (HPMC). Paclitaxel was dissolved in Cremophor EL and anhydrous ethanol, diluted with physiological saline so as to obtain a predetermined concentration and put in use.
The presence or absence of a therapeutic effect was determined by measuring the major axis and minor axis of a tumor with time and obtaining a tumor volume (TV), relative tumor volume (RTV) and T/C (%) value (average relative tumor volume ratio of the treatment group to the control group) on day 10 after initiation of administration according to the following expressions. Tumor volume (TV)={(major axis)×(minor axis)^2}/2 Relative tumor volume (RTVn) on measurement day (n)=TVn/TV1 T/C(%)={(average RTVn of treatment group)/(average RTVn of control group)}×100
TV1 represents tumor volume at the administration initiation time
Furthermore, an individual in which a tumor disappeared was specified as CR (complete remission/complete response) and the number of cases was obtained.

Another data set deals with human Aurora A (Homo sapiens (Human), UniProt O14965). Kind of data set: Measurement of Aurora A inhibitory activity (IMAP fluorescence polarization kinase assay). The format is biochemical. To be noted: ATP 5 μM, 25° C., 50 minutes. Here is the method: (§1) The inhibitory activities of a test compound against Aurora A and Aurora B were measured according to the following method.
Complementary DNA of human Aurora A was fused with a histidine tag at the amino terminal, inserted into an expression vector and highly expressed in Escherichia coli BL21-CodonPlus (DE3)-RIL strain. After Escherichia coli was recovered and lysed, human Aurora A protein fused with a histidine tag was allowed to bind to a nickel chelate column and eluted by imidazole from the column. An active fraction was desalted by a desalting column to obtain purified enzyme.
In measuring inhibitory activity of the compound, first, the test compound was serially diluted by dimethylsulfoxide (DMSO). […] To the mixture, IMAP (registered trade mark) Progressive Binding Reagent diluted 500× with IMAP (registered trade mark) Progressive Binding Buffer A (manufactured by Molecular Devices) was added to terminate the kinase reaction. […] Based on the obtained fluorescence polarization degree, the amount of phosphorylation reaction was obtained.
(In general: In fluorescence polarisation assays a small probe gives low polarisation when free and higher when bound to something large.)

For a further data set, the target named is human Aurora B (Homo sapiens (Human), UniProt Q96GD4). Kind of data set: Measurement of Aurora B kinase activity. The format is biochemical. The note with it: ATP 40 μM, 60 minutes. On the procedure: as §1
The concentration of the compound at which 50% of the phosphorylation reaction was suppressed was defined as IC50 value (nM).

Data set [3] in a line: Evaluation of oral absorption property. It counts as in vivo, BALE/cA mice. The note with it: oral administration in 0.5% HPMC, plasma 0.5-6 hours, LCMS. Here is the method: A test compound was suspended or dissolved in 0.5% HPMC and orally administered to BALE/cA mice. At the time points of 0.5, 1, 2, 4 and 6 hours after oral administration, blood was sampled from the back of the eye to obtain blood plasma. The concentration of the compound in the obtained blood plasma was measured by LCMS and evaluated for oral absorption property.

In data set [4] the test system is human-derived lung cancer cell strain NCI-H460 (H460). As to the kind of experiment: Schedule of administration in combination with docetaxel (Example 2 (2)). The format is in vivo, nude mice. On the procedure:
The study was performed according to the method in Example 1, except that docetaxel was used in place of paclitaxel. Furthermore, administration of Compound 1 was initiated from the administration day of docetaxel. Group 1 was defined as a control group. Docetaxel was dissolved in anhydrous ethanol and Tween 80 and thereafter diluted with 5% glucose injection liquid and intravenously administered in a dose of 30 mg/kg twice, i.e., on day 1 and day 8 (Group 2 and 4). In Group 3 and 4, Compound 1 was orally administered twice per day in a dose of 60 mg/kg, from the administration day of docetaxel for 4 days and from day 8 of docetaxel administration for 4 days.
In Group 3 and 4, the dose of Compound 1 per day was 120 mg/kg/day. Note that, in FIG. 2 (B), Group 1 is represented by Control, Group 2 by Docetaxel alone, Group 3 by Compound 1 alone and Group 4 by Combo (4 days).

Data set [5] has the same test system. As to the kind of experiment: Schedule of administration in combination with paclitaxel, NCI-H460 subcutaneous graft. It counts as in vivo. Here is the method: The study was performed according to the method in Example 1. Cells (1×10^7) of human-derived lung cancer cell strain NCI-H460 (H460) were subcutaneously grafted to right abdomens of nude mice. […] Group 1 was defined as a control group, Group 2 and 3 were defined as a paclitaxel single administration group and Compound 1 single administration group, respectively. Group 4 and 5 were defined as an administration group in combination with paclitaxel and Compound 1. Paclitaxel was intravenously administered in a dose of 60 mg/kg twice, i.e., day 1 and day 8 (Group 2, 4 and 5). In Group 3 and 5, Compound 1 was orally administered twice per day in a dose of 60 mg/kg, for 4 days from the next day of paclitaxel administration and for 4 days from day 9 of paclitaxel administration. In Group 4, Compound 1 was orally administered twice per day in a dose of 60 mg/kg from the next day of paclitaxel administration for 2 days and from day 9 for 2 days. In Group 3, 4 and 5, the dose per day of Compound 1 was 120 mg/kg/day. […]
Furthermore, the body weights of mice were measured with time and a body weight change rate (BWC) was computationally obtained according to the following expression. […]

In general, IC50 refers to the midpoint of a concentration-inhibition curve.

human Aurora B, sequence (Q96GD4 whole entry): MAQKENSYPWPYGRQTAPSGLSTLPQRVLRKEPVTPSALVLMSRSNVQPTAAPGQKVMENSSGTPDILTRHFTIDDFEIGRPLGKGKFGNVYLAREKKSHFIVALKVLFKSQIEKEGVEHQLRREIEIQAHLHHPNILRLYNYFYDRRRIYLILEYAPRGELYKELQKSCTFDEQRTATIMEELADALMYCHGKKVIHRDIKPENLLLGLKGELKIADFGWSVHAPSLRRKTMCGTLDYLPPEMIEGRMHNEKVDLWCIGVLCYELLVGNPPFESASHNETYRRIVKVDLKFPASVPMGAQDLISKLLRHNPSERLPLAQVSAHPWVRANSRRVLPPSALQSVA
human Aurora B, sequence (Q9NQS7 803-916 partner): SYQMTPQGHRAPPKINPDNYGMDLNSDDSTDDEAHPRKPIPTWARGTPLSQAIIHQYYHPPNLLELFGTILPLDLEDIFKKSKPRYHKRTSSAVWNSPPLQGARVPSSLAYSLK
human Aurora A, sequence (O14965 whole entry, the tested form may be a part): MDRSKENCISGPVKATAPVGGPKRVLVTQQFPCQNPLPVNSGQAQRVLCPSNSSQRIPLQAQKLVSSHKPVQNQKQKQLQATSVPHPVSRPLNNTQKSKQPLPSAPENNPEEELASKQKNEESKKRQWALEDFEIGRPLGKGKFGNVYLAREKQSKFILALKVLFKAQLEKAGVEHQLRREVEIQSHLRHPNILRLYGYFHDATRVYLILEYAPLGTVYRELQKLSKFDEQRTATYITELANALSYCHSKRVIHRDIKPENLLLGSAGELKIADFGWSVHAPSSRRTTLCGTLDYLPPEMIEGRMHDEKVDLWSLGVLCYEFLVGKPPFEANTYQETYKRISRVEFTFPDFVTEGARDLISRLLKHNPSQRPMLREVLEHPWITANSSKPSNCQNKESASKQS

For `O=C(O)[C@]1(Cc2cccc(Nc3nccs3)n2)CC[C@@H](Oc2cccc(Cl)c2F)CC1` [MK-5108], the “antitumor effect in combination with docetaxel” value in data set [1] is given as “enhancement of an antitumor effect is confirmed”.

`Cc1cc(Nc2nc(CC3(C(=O)O)CCN(C(=O)c4cccc(Cl)c4Cl)CC3)ccc2F)n[nH]1` [Production Example 1, 1-(2,3-dichlorobenzoyl)-4-((5-fluoro-6-(5-methyl-1H-pyrazol-3-ylamino)pyridin-2-yl)methyl)piperidine-4-carboxylic acid]: the “number of CR cases” value in data set [2] (Group 2: paclitaxel 10 mg/kg iv, from next day Compound 1 30 mg/kg po twice per day for one day (sequential)) is reported as “no CR cases”; in data set [2] (Group 3: paclitaxel 10 mg/kg iv, from next day Compound 1 30 mg/kg po twice per day for 4 days (sequential)), 2; in data set [2] (Group 4: paclitaxel 10 mg/kg iv, from same day Compound 1 30 mg/kg po twice per day for 2 days (concurrent)), “one”; in data set [2] (Group 5: paclitaxel 10 mg/kg iv, from same day Compound 1 30 mg/kg po twice per day for 4 days (concurrent)), 4. For the same compound, the “toxicity / side effect” value is “no serious toxicity such as death was observed” in data set [2] (Group 3 and 5: paclitaxel 10 mg/kg iv plus Compound 1 30 mg/kg po bid for 4 days); “no significant toxicity such as death was observed” in data set [4] (Group 4: docetaxel 30 mg/kg iv plus Compound 1 60 mg/kg po bid for 4 days per cycle); “no significant toxicity such as death was observed” in data set [5] (Group 4 and 5: paclitaxel 60 mg/kg iv plus Compound 1 60 mg/kg po bid for 2 or 4 days per cycle). Further, the results for the half-inhibitory concentration (IC50) against human Aurora A and on human Aurora B were 0.4 nM and 140 nM, respectively. In addition, in data set [3], the “oral absorption property (concentration in blood plasma)” value (“oral absorption property” below) was “satisfactory oral absorption property”. In addition, the “antitumor effect (tumor volume), Combo (4 days)” value in data set [4] (docetaxel 30 mg/kg iv day 1 and 8, Compound 1 60 mg/kg po bid for 4 days from day 1 and day 8) is “an antitumor effect is exerted”. Moreover, the “tumor volume, Combo (4 days) versus Combo (2 days)” value in data set [5] (paclitaxel 60 mg/kg iv day 1 and 8, Compound 1 60 mg/kg po bid for 4 days (Group 5) vs 2 days (Group 4) per 7-day cycle) is on record as “smaller than that of Group 4; also recorded: stronger antitumor enhancing effect”.

Turning to `COc1ccc(CC2(C(=O)O)CCN(C(=O)c3cccc(Cl)c3F)CC2)nc1Nc1cc(C)[nH]n1` [Production Example 11, 1-(3-chloro-2-fluorobenzoyl)-4-((5-methoxy-6-(5-methyl-1H-pyrazol-3-ylamino)pyridin-2-yl)methyl)piperidine-4-carboxylic acid], the IC50 on human Aurora A stood at 0.6 nM; at human Aurora B, 930 nM. Further, the “oral absorption property” value in data set [3] was “satisfactory oral absorption property”.

Regarding `Cc1cc(Nc2nc(CC3(C(=O)O)CCN(C(=O)c4cccc(Cl)c4F)CC3)ccc2Cl)n[nH]1` [Production Example 12, 1-(3-chloro-2-fluorobenzoyl)-4-((5-chloro-6-(5-methyl-1H-pyrazol-3-ylamino)pyridin-2-yl)methyl)piperidine-4-carboxylic acid], the IC50 is 0.4 nM at human Aurora A and 260 nM at human Aurora B. Also, the “oral absorption property” value in data set [3] is recorded as “satisfactory oral absorption property”.

Turning to `Cc1cc(Nc2nc(CC3(C(=O)O)CCN(C(=O)c4cccc(Cl)c4F)CC3)ccc2F)n[nH]1` [Production Example 13, 1-(3-chloro-2-fluorobenzoyl)-4-((5-fluoro-6-(5-methyl-1H-pyrazol-3-ylamino)pyridin-2-yl)methyl)piperidine-4-carboxylic acid], the IC50 was found to be 0.4 nM against human Aurora A and 180 nM on human Aurora B. Further, the “oral absorption property” value in data set [3] is recorded as “satisfactory oral absorption property”.

Consider `Cc1cc(Nc2nc(CC3(c4noc(C)n4)CCN(C(=O)c4cccc(Cl)c4F)CC3)ccc2F)n[nH]1` [Production Example 22, (3-chloro-2-fluorophenyl)(4-((5-fluoro-6-(5-methyl-1H-pyrazol-3-ylamino)pyridin-2-yl)methyl)-4-(5-methyl-1,2,4-oxadiazol-3-yl)piperidine-1-yl)methanone], for which the results for the IC50 on human Aurora A and against human Aurora B were 0.7 nM and 380 nM, respectively. Further, the “oral absorption property” value in data set [3] is on record as “satisfactory oral absorption property”.

With `CC(=O)O[C@H]1C(=O)[C@@]2(C)[C@H]([C@H](OC(=O)c3ccccc3)[C@]3(O)C[C@H](OC(=O)[C@H](O)[C@@H](NC(=O)c4ccccc4)c4ccccc4)C(C)=C1C3(C)C)[C@]1(OC(C)=O)CO[C@@H]1C[C@@H]2O` [paclitaxel, reference compound], the “number of CR cases” value in data set [2] (Group 1: paclitaxel 10 mg/kg iv day 1 alone) is “no CR cases”.
